From PubChem BioAssay AID1845211 (Molecular Pharmacology Branch, DTP, NCI, 2023)

Tested on: NCI-H322M multicellular tumor spheroids, viability (% test/control)
Experiment: Anticancer human tumor NCI-H322M cell line growth inhibition;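 as to viability, T/C: spheroids exposed to compound for seven days before readout; 100% = DMSO vehicle control wells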
Conditions: for IC50: curve of first compound; for viability, T/C: stronger effect = lower value
Summary of the method: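 Complex tumor spheroids combined malignant cells with endothelial cells and mesenchymal stem cells. DNA-damaging drugs and DNA repair inhibitors were tested alone and in combination, at half-log dilutions down from clinical Cmax (top 10 microM if Cmax unknown), 0.25% DMSO final.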

[1] = second compound 1 µM, first compound 0.0316 µM
[2] = second compound 1 µM, first compound 0.1 µM
[3] = second compound 1 µM, first compound 0.316 µM
[4] = second compound 1 µM, first compound 1 µM
[5] = second compound 1 µM, first compound 3.16 µM
[6] = second compound 1 µM, first compound 10 µM
[7] = second compound 3.16 µM, first compound 0.0316 µM
[8] = second compound 3.16 µM, first compound 0.1 µM
[9] = second compound 3.16 µM, first compound 0.316 µM
[10] = second compound 3.16 µM, first compound 1 µM
[11] = second compound 3.16 µM, first compound 3.16 µM
[12] = second compound 3.16 µM, first compound 10 µM
[13] = second compound 10 µM, first compound 0.0316 µM
[14] = second compound 10 µM, first compound 0.1 µM
[15] = second compound 10 µM, first compound 0.316 µM
[16] = second compound 10 µM, first compound 1 µM
[17] = second compound 10 µM, first compound 3.16 µM
[18] = second compound 10 µM, first compound 10 µM
[19] = second compound 31.6 µM, first compound 0.0316 µM
[20] = second compound 31.6 µM, first compound 0.1 µM
[21] = second compound 31.6 µM, first compound 0.316 µM
[22] = second compound 31.6 µM, first compound 1 µM
[23] = second compound 31.6 µM, first compound 3.16 µM
[24] = second compound 31.6 µM, first compound 10 µM
[25] = second compound 100 µM, first compound 0.0316 µM
[26] = second compound 100 µM, first compound 0.1 µM
[27] = second compound 100 µM, first compound 0.316 µM
[28] = second compound 100 µM, first compound 1 µM
[29] = second compound 100 µM, first compound 3.16 µM
[30] = second compound 100 µM, first compound 10 µM

**Q.** With `CC1COCCN1c1cc(-c2ccnn2C)c2ccnc(-c3ccn[nH]3)c2n1` (stereo not given) + Cn1nnc2c(C(N)=O)ncn2c1=O as the compound, how does the IC50 (second compound 1 µM) read?
**A.** 128 nM

**Q.** What about the IC50 (second compound 3.16 µM) of the same compound?
**A.** 156 nM

**Q.** What about the IC50 (second compound 10 µM) of the same compound?
**A.** 80 nM

**Q.** And the IC50 (second compound 31.6 µM)?
**A.** < 31.6 nM

**Q.** What about the IC50 (second compound 100 µM) of the same compound?
**A.** < 31.6 nM

**Q.** And the viability, T/C [1]?
**A.** 66.3%

**Q.** And the viability, T/C [2]?
**A.** 54.4%

**Q.** What about the viability, T/C [3] of the same compound?
**A.** 43.5%

**Q.** And the viability, T/C [4]?
**A.** 37.4%

**Q.** What about the viability, T/C [5] of the same compound?
**A.** 41.5%

**Q.** What about the viability, T/C [6] of the same compound?
**A.** 48.5%

**Q.** What about the viability, T/C [7] of the same compound?
**A.** 63%

**Q.** And the viability, T/C [8]?
**A.** 55.1%

**Q.** What about the viability, T/C [9] of the same compound?
**A.** 42.3%

**Q.** What about the viability, T/C [10] of the same compound?
**A.** 34.1%

**Q.** What about the viability, T/C [11] of the same compound?
**A.** 37.7%

**Q.** And the viability, T/C [12]?
**A.** 40.8%

**Q.** What about the viability, T/C [13] of the same compound?
**A.** 72.2%

**Q.** And the viability, T/C [14]?
**A.** 44.5%

**Q.** And the viability, T/C [15]?
**A.** 45.4%

**Q.** And the viability, T/C [16]?
**A.** 37.3%

**Q.** And the viability, T/C [17]?
**A.** 40.6%

**Q.** What about the viability, T/C [18] of the same compound?
**A.** 50%

**Q.** And the viability, T/C [19]?
**A.** 56.1%

**Q.** What about the viability, T/C [20] of the same compound?
**A.** 43%

**Q.** What about the viability, T/C [21] of the same compound?
**A.** 37.1%

**Q.** What about the viability, T/C [22] of the same compound?
**A.** 36.6%

**Q.** What about the viability, T/C [23] of the same compound?
**A.** 35.9%

**Q.** And the viability, T/C [24]?
**A.** 41.4%

**Q.** What about the viability, T/C [25] of the same compound?
**A.** 41.1%

**Q.** What about the viability, T/C [26] of the same compound?
**A.** 34.8%

**Q.** And the viability, T/C [27]?
**A.** 31.7%

**Q.** And the viability, T/C [28]?
**A.** 32%

**Q.** And the viability, T/C [29]?
**A.** 35.4%

**Q.** And the viability, T/C [30]?
**A.** 40.6%

**Q.** For `COc1ccc([C@@H](O)c2cc(-c3ncnc4cc(N5CCOCC5)ccc34)c(F)cc2Cl)nn1` + Cn1nnc2c(C(N)=O)ncn2c1=O, which IC50 (second compound 1 µM) is on record?
**A.** 3690 nM

**Q.** What about the IC50 (second compound 3.16 µM) of the same compound?
**A.** 1400 nM

**Q.** What about the IC50 (second compound 10 µM) of the same compound?
**A.** 2040 nM

**Q.** What about the IC50 (second compound 31.6 µM) of the same compound?
**A.** 2010 nM

**Q.** And the IC50 (second compound 100 µM)?
**A.** 1920 nM

**Q.** What about the viability, T/C [1] of the same compound?
**A.** 86%

**Q.** What about the viability, T/C [2] of the same compound?
**A.** 77.2%

**Q.** What about the viability, T/C [3] of the same compound?
**A.** 85.8%

**Q.** And the viability, T/C [4]?
**A.** 55.5%

**Q.** What about the viability, T/C [5] of the same compound?
**A.** 57.1%

**Q.** What about the viability, T/C [6] of the same compound?
**A.** 35.4%

**Q.** What about the viability, T/C [7] of the same compound?
**A.** 78.2%

**Q.** What about the viability, T/C [8] of the same compound?
**A.** 80.8%

**Q.** And the viability, T/C [9]?
**A.** 81.2%

**Q.** What about the viability, T/C [10] of the same compound?
**A.** 52.9%

**Q.** And the viability, T/C [11]?
**A.** 50.1%

**Q.** What about the viability, T/C [12] of the same compound?
**A.** 35.8%

**Q.** What about the viability, T/C [13] of the same compound?
**A.** 105%

**Q.** And the viability, T/C [14]?
**A.** 76.9%

**Q.** What about the viability, T/C [15] of the same compound?
**A.** 68.2%

**Q.** What about the viability, T/C [16] of the same compound?
**A.** 61.2%

**Q.** What about the viability, T/C [17] of the same compound?
**A.** 46.8%

**Q.** And the viability, T/C [18]?
**A.** 35.3%

**Q.** And the viability, T/C [19]?
**A.** 83.6%

**Q.** And the viability, T/C [20]?
**A.** 94.6%

**Q.** What about the viability, T/C [21] of the same compound?
**A.** 65.7%

**Q.** What about the viability, T/C [22] of the same compound?
**A.** 58.9%

**Q.** What about the viability, T/C [23] of the same compound?
**A.** 47.9%

**Q.** What about the viability, T/C [24] of the same compound?
**A.** 39.5%

**Q.** What about the viability, T/C [25] of the same compound?
**A.** 80.7%

**Q.** What about the viability, T/C [26] of the same compound?
**A.** 75.5%

**Q.** What about the viability, T/C [27] of the same compound?
**A.** 82.7%

**Q.** And the viability, T/C [28]?
**A.** 58.6%

**Q.** And the viability, T/C [29]?
**A.** 44.8%

**Q.** What about the viability, T/C [30] of the same compound?
**A.** 34.4%
